Experimental data: publication PMC10579715 (Plant Biotechnology Journal, 2023)

Test system: LmUGT73P1
Experiment: LC-QTOF-MS/MS rhamnosyltransferase assay, Michaelis-Menten plot
Assay type: biochemical, Lonicera macranthoides
Conditions: 10 mM UDP-Rha, 50 mM Tris-HCl pH 7.5, 37 °C, 20 min

Work on `CC1(C)CC[C@]2(C(=O)O)CC[C@]3(C)C(=CC[C@@H]4[C@@]5(C)CC[C@H](O[C@@H]6OC[C@H](O)[C@H](O)[C@H]6O)[C@@](C)(CO)[C@@H]5CC[C@]43C)[C@@H]2C1` [cauloside A] yielded a Km of 33 µM.
